Source: patent US8618101B2, “N-((1R,2S,5R)-5-(tert-butylamino)-2-((S)-3-(7-tert-butylpyrazolo[1,5-a][1,3,5]triazin-4-ylamino)-2-oxopyrrolidin-1-yl)cyclohexyl)acetamide, a dual modulator of chemokine receptor activity, crystalline forms and processes” (Bristol-Myers Squibb Company, priority 2009, dated 2013)
Read-outs that look alike come from different tables or passages of the source.

Tests used:
[1] = Parallel Artificial Membrane Permeability Assay (PAMPA); assay type: in vitro ADME; conditions: pH 7.4
Source text: The Parallel Artificial Membrane Permeability Assay (PAMPA) consists of a specially formulated lecithin-based lipid combination referred to as the gastrointestinal tract (GIT) lipid. The GIT lipid is used to form a membrane in a sandwich plate assembly similar to that used in the Caco-2 assays. The GIT lipid closely resembles in vivo membrane composition and performance as measured by standard compounds that are known to be passively absorbed in humans. […] The rate of passage of compounds through the PAMPA membrane is used to determine a permeability coefficient (Pc), which can be related to the in vivo passive permeability of the compound.
The permeability coefficient (Pc) of a particular compound is examined in a pH-dependent setting with apical and basolateral pH of 7.4. All experiments are conducted in triplicate determinations.
The PAMPA assay plate (donor side and acceptor side) was combined and allowed to incubate at room temperature for 4 hours. […] The donor, acceptor, reference, and blank plates were read in the SPECTRAMAX® UV plate reader. Data was captured by the pION software, which analyzes the spectra and generates Pc values.

[2] = biological target: T1, human cardiac sodium channel, SCN5A (Homo sapiens, UniProt Q14524); experiment: Sodium channel patch clamp; assay type: cell-based; conditions: read-out: Na+ channel patch clamp (% Inhib.)
T1 construct: expressed in transfected cells; host or cells: HEK-293
Description: Whole-cell patch-clamp was used to directly measure inward sodium currents in HEK-293 cells expressing the human cardiac sodium channel, SCN5A. The compound was tested at a protein-free aqueous buffer. For determining steady state inhibition, sodium currents were elicited every 5 seconds using the following voltage protocol: cells were held at a potential of −90 mV and stepped to −20 mV for 60 ms. Effects were calculated by measuring inhibition of peak current during the test pulse to −20 mV. Rate-dependence of inhibition was assessed by stimulation at frequencies of 1 Hz and 4 Hz.

[3] = biological target: T2, human CCR-2 (Homo sapiens, UniProt P41597); experiment: CCR-2 calcium mobilization, THP-1 cells; assay type: cell-based; conditions: MCP-1 10 nM, read-out: CCR-2 Ca2+ Flux IC50
T2 sequence (P41597 1-360 isoform P41597-2): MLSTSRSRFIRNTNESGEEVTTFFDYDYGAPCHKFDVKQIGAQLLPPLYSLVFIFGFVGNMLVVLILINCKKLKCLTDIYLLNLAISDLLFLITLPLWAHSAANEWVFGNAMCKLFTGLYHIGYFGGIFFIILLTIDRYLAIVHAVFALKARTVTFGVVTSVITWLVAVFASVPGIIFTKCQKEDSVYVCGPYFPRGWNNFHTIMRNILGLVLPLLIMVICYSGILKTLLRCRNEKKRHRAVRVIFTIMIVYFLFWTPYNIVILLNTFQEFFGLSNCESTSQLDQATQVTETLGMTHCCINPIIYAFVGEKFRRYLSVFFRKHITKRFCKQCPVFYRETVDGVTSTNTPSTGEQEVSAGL
Description: All conditions were tested in duplicate.

[4] = biological target: T3, CCR-2 (Homo sapiens, UniProt P41597); experiment: CCR-2 GTP-γS exchange, HT1080 membranes; assay type: biochemical; conditions: 1 nM MCP-1
Description: Each reaction (200 μL) contained 20 mM Na-HEPES, 10 mM MgCl2, 50 mM NaCl, 0.1% BSA (Sigma), 1% DMSO, and 10 μM GDP (pH 7.4). […] Reactions were incubated for 90 minutes hour at room temperature and [^35S]-GTPγS/Gαi complexes were collected on a Millipore MAFC 96 well filter plate. […] Data were analyzed using the ligand binding software from Graphpad Prism 4.

[5] = biological target: T4, CCR-5 (Homo sapiens, UniProt P51681); experiment: CCR-5 GTP-γS exchange, CCR-5/HT1080 membranes; assay type: biochemical; conditions: MIP-1α/LD78β ligand
T4 construct: human peripheral T cells was used as a source of CCR-5; endogenous in cells; host or cells: human peripheral T cells from donors pre-screened for high CCR-5 expression
Source text: A similar procedure to the CCR-2 GTP-γS exchange procedure set forth above was adopted except that MIP-1α/LD78β was the ligand and the cell line was CCR-5/HT1080. MIP-1α/LD78β was used as the CCR-5 ligand because it provided a bigger signal to noise ratio than MIP-1β.

[6] = biological target: T3, CCR-2; experiment: In vivo receptor occupancy in blood of hCCR-2 KI mice (Gaddum equation); conditions: for % Example 1 bound CCR-2 / % free CCR-2 / % mouse MCP-1 bound CCR-2: 48 h
Source text: (§1) The caveat for this estimation is that only CCR-2 and its major ligand MCP-1 were taken into consideration. The receptor occupancy of a ligand in the presence of a competitive inhibitor is defined by the Gaddum equation: […]
Since Example 1 is a competitive inhibitor of MCP-1 binding to CCR-2, the amounts of both mouse MCP-1/CCR-2 receptor complex and Example 1/CCR-2 receptor complex can be determined using the serum levels of both mouse MCP-1 and protein-unbound Example 1 in plasma. […] The fraction of mouse MCP-1/CCR-2 receptor complexes is determined using the form of the equation described above. To determine the fraction of Example 1/CCR-2 complexes the equation is re-defined as:
[formula] Finally, the amount of CCR-2 free is determined from: [CCR-2]total=[CCR-2]free+[mouse MCP-1/CCR-2]+[Example 1/CCR-2]

[7] = Plasma levels of Example 1 and mouse MCP-1 in the 48-hour TG peritonitis model; assay type: in vivo; conditions: mouse, read-out: Concentration of free Example 1 in plasma (nM) (fold IC90 CCR-2 binding)
Description: For the 48-hour TG peritonitis study, Example 1 was dosed twice a day with the first dose one hour prior to TG injection. Total peritoneal cell counts were obtained on isolated cells by a cell counter. Cytospins were performed to determine differential leukocyte counts. The cells were stained for 3 minutes with Wright-Giemsa Stain (Sigma-Aldrich) and then rinsed with deionized water for 5 minutes. Differential counts were calculated based on a total of 200 cells counted per sample. Blood was also collected from the retro-orbital sinus at the end of each study in EDTA for determination of drug concentration.
as §1

[8] = Single-dose pharmacokinetics in monkeys; conditions: male, cynomolgus monkey, 1 mg/kg
Description: The pharmacokinetics of various test compounds were evaluated in male cynomolgus monkeys in a crossover-design. Monkeys were fasted overnight prior to PO dosing and fed 4 h post dose. A group of 1-3 animals (3 to 5 kg) received the compound by IV infusion (over 10 min) via a femoral vein and by oral gavage, with a 1-week washout between treatments. Serial blood samples (˜0.3 mL) were collected from a femoral artery at 0.17 (IV only), 0.25, 0.5, 0.75, 1, 2, 4, 6, 8, and 24 h post dose, and centrifuged at 4° C. (1500-2000×g) to obtain plasma. Samples were stored at −20° C. until analysis by LC/MS/MS.
The pharmacokinetic parameters were obtained by non-compartmental analysis of plasma concentration vs. time data (Kinetica software, Version 4.2, InnaPhase Corporation, Philadelphia, Pa.). The peak concentration (Cmax) and time for Cmax were recorded directly from experimental observations. The area under the curve from time zero to the last sampling time (AUC(0-T)) was calculated using a combination of linear and log trapezoidal summations. The total plasma clearance (CLTp), steady-state volume of distribution (Vss), apparent elimination half-life (T½) and mean residence time (MRT) were estimated after IV administration. Estimations of T½ was made using a minimum of 3 time points with quantifiable concentrations. The absolute oral bioavailability (F) was estimated as the ratio of dose-normalized AUC values following oral and IV doses.

[9] = biological target: T2, human CCR-2; experiment: Human CCR-2 binding assay with hPBMCs, 125I-human MCP-1 tracer; parameters: hPBMCs were isolated from human leukopak; host or cells: human peripheral blood mononuclear cells
Description: See also: Yoshimura et al., J. Immunol., 145:292 (1990). […] This was followed by adding 25 μl of Microscint 20 into each well. The plate was sealed and counted on the Trilux for 1 minute. […] All conditions were tested in duplicate.

[10] = 200 mg/kg (different study), oral BID

T3 sequence (P41597 whole entry): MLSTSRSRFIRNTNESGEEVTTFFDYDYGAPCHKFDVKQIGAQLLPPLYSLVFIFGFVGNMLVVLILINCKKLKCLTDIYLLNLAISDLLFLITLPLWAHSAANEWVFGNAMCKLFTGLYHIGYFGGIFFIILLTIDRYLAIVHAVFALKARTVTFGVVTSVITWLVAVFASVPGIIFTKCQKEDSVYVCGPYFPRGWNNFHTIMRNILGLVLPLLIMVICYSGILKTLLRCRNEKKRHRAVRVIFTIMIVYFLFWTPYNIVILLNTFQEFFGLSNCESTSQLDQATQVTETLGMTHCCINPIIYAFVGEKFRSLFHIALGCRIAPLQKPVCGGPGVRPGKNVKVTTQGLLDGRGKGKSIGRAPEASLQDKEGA
T1 sequence (Q14524 whole entry): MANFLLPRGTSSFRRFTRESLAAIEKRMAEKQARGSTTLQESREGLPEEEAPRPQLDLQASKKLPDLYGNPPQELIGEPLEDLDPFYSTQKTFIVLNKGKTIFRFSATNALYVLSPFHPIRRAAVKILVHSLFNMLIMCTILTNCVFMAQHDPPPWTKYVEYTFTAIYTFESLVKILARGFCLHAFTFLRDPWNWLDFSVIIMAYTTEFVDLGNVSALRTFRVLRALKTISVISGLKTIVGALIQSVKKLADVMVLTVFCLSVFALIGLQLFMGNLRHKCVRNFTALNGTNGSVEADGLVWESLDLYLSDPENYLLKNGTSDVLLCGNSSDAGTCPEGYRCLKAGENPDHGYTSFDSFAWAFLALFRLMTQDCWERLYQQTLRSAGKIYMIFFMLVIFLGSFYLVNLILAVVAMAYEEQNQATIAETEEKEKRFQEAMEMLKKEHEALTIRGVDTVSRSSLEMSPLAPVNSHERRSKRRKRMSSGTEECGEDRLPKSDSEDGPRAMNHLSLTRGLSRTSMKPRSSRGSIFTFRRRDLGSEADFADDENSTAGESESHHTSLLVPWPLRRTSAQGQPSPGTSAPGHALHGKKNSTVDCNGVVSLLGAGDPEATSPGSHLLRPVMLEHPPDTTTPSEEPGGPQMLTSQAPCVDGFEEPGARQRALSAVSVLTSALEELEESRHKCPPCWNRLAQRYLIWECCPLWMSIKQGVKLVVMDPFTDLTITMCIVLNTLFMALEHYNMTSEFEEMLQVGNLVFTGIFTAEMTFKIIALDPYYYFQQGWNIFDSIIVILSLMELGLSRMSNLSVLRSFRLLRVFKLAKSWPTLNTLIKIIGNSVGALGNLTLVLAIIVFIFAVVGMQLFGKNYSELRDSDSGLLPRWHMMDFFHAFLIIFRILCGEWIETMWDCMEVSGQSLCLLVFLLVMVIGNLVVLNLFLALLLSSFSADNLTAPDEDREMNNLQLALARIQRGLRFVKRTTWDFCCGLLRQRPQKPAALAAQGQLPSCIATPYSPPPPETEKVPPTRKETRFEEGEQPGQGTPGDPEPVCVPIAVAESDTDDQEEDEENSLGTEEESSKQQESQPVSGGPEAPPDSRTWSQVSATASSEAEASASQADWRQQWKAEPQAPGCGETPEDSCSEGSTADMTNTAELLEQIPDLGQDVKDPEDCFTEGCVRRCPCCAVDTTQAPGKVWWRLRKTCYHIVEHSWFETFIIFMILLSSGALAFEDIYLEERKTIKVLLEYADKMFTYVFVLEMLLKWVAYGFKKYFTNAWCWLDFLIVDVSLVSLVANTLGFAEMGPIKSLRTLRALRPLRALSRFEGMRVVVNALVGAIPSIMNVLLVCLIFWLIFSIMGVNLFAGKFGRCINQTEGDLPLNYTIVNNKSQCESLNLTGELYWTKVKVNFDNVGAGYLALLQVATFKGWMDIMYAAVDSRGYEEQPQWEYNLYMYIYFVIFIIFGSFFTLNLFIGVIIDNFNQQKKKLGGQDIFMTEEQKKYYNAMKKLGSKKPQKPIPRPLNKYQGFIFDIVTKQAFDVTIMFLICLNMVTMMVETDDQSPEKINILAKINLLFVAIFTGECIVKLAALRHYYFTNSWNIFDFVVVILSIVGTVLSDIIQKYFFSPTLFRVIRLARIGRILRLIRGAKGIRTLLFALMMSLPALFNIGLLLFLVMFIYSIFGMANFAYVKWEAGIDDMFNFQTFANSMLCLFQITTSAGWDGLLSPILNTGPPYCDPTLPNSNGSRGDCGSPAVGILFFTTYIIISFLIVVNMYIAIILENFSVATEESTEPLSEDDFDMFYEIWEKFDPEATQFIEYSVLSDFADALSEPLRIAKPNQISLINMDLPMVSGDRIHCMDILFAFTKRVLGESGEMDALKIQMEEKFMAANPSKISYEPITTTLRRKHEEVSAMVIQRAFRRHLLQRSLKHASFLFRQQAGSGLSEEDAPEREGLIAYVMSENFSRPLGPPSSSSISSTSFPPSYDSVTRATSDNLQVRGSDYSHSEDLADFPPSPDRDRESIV
T4 sequence (P51681 whole entry): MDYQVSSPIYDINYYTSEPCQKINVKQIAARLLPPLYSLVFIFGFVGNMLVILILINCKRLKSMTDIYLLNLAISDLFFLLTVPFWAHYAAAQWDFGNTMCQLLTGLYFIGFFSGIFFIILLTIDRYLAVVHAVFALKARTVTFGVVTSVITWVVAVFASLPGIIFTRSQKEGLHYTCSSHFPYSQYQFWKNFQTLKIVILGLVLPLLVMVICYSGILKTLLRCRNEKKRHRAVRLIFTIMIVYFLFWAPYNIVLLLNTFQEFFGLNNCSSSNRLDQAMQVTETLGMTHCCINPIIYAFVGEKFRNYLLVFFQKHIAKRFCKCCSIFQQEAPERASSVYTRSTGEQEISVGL

CC(=O)N[C@@H]1C[C@H](NC(C)(C)C)CC[C@@H]1N1CC[C@H](Nc2ncnc3cc(C(C)(C)C)nn23)C1=O [Example 1, N-((1R,2 S,5R)-5-(tert-Butylamino)-2-((S)-3-(7-tert-butylpyrazolo[1,5-a][1,3,5]triazin-4-ylamino)-2-oxopyrrolidin-1-yl)cyclohexyl)acetamide]
Papp at 4 h, 100 µM [1]: 33.6 ×10⁻⁶ cm/s | inhibition at 10000 nM ([2]; 10,000 nM): 15 to 20% | inhibition at 30000 nM ([2]; 30,000 nM): 13 to 16% | IC50 [3]: 2.9 ± 1.5 nM | IC50 [4]: 3.5 ± 1.9 nM | IC50 [5]: 6.1 ± 1.2 nM | % Example 1 bound CCR-2 ([6]; 10 mg/kg oral BID): 48.15% | % free CCR-2 ([6]; 10 mg/kg oral BID): 50.68% | % mouse MCP-1 bound CCR-2 ([6]; 10 mg/kg oral BID): 1.17% | % Example 1 bound CCR-2 ([6]; 50 mg/kg oral BID): 88.74% | % free CCR-2 ([6]; 50 mg/kg oral BID): 10.69% | % mouse MCP-1 bound CCR-2 ([6]; 50 mg/kg oral BID): 0.56% | % Example 1 bound CCR-2 ([6]; 160 mg/kg oral BID): 96.72% | % free CCR-2 ([6]; 160 mg/kg oral BID): 3.12% | % mouse MCP-1 bound CCR-2 ([6]; 160 mg/kg oral BID): 0.16% | % Example 1 bound CCR-2 [6, 10]: 98.45% | % free CCR-2 [6, 10]: 1.44% | % mouse MCP-1 bound CCR-2 [6, 10]: 0.11% | CCR-2 occupancy at maximal inhibition of monocyte/macrophage infiltration ([6]; hCCR-2 KI mouse TG peritonitis): 98.5% | concentration at 48 h ([7]; hCCR-2 KI, oral, 10 mg/kg): 1.9 nM | concentration at 48 h ([7]; hCCR-2 KI, oral, 50 mg/kg): 16.6 nM | concentration at 48 h ([7]; hCCR-2 KI, oral, 200 mg/kg): 136 nM | concentration at 48 h ([7]; 160 mg/kg oral BID, 48 h, hCCR-2 KI mice): 62 nM | bioavailability ([8]; in vivo): 63% | clearance ([8]; plasma, intravenous): 16.4 mL/min/kg | AUC ([8]; plasma, oral): 1.3 µM·h | Ki ([9]; average, read-out: average Ki for binding to hCCR-2): 2 nM | IC50 ([9]; hPBMCs, 125I-human MCP-1): 6.2 ± 2.7 nM
